According to ChEMBL document CHEMBL5370641, “Structure-Based Optimization and Biological Evaluation of Potent and Selective MMP-7 Inhibitors for Kidney Fibrosis” (J Med Chem, 2023):
The source made the active and inactive calls. The rule behind the calls is not given here. Numbered stars: 1 amine (or outer) side, 2 acyl side, 3 side chain; on linkers, the order of the positions; unused ones are H or OH. Square brackets hold non-standard residues; d marks the D form. Peptide text beside a SMILES is read from it. * marks the point of attachment. Benzenesulfonyl(4-Cl,3-CF3) = O=S(=O)(c1ccc(Cl)c(C(F)(F)F)c1)*; γGlu = O=C(O)[C@H](CCC(=O)[*:2])N[*:1]; 4Pal = N[C@@H](Cc1ccncc1)C(=O)O; Tle = CC(C)(C)[C@H](N)C(=O)O; β3hP = O=C(O)C[C@@H]1CCCN1

Key:
Homo sapiens [1] = organism: Homo sapiens; test: Selectivity ratio of IC50 for inhibition of recombinant human MMP3 to IC50 for inhibition of recombinant human MMP7
Homo sapiens [2] = organism: Homo sapiens; test: Selectivity ratio of IC50 for inhibition of recombinant human MMP12 to IC50 for inhibition of recombinant human MMP7
[3] = molecular target: 72 kDa type IV collagenase (Homo sapiens, UniProt P08253); test: Inhibition of recombinant human MMP2 using MOCAc-Pro-Leu-Gly-Leu-A2pr-(Dnp)-Ala-Arg-NH2 as substrate preincubated with compound for 15 mins followed by substrate addition and measured after 1 hrs by fluorescence based analysis
Sequence of 72 kDa type IV collagenase (P08253 whole entry): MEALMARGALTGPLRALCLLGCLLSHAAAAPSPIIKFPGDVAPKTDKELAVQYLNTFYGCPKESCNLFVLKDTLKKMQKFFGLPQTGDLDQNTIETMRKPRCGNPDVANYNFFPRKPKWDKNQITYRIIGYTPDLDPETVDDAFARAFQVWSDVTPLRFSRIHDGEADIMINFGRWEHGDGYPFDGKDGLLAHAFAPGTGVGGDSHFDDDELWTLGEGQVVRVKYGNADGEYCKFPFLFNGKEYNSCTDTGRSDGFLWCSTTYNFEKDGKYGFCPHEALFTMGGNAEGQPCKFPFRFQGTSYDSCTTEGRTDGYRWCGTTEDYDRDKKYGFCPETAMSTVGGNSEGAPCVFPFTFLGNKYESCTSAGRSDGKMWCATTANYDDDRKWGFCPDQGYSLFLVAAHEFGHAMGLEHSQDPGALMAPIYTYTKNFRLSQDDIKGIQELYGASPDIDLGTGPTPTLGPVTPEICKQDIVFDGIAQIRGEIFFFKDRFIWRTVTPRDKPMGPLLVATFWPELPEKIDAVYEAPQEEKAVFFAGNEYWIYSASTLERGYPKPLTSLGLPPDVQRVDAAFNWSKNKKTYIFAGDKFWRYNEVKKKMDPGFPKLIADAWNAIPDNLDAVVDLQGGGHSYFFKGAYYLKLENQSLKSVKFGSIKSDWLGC

[4] = Metabolic stability in rat liver microsome assessed as intrinsic clearance at 1 uM incubated for 15 mins by LC-MS analysis; assay type: ADME; conditions: liver microsomes, read-out: CLH (converted)
[5] = Protein binding in human serum incubated for 4 hrs by equilibrium dialysis based LC-MS/MS analysis; assay type: ADME, cell-free; conditions: read-out: PB (converted)
Homo sapiens [6] = organism: Homo sapiens; test: Selectivity ratio of IC50 for inhibition of recombinant human MMP14 to IC50 for inhibition of recombinant human MMP7
[7] = Lipophilicity, logD of compound at pH 7.4 by HPLC-UV analysis; assay type: physicochemical; conditions: buffer
[8] = Volume of distribution at steady state in Sprague-Dawley rat at 1 mg/kg, iv administered as single dose by LC-MS/MS analysis; assay type: ADME, organism-based; conditions: in vivo, read-out: Vdss
[9] = Metabolic stability in human liver microsome assessed as intrinsic clearance at 1 uM incubated for 15 mins by LC-MS analysis; assay type: ADME; conditions: liver microsomes, read-out: CLH (converted)
[10] = Protein binding in mouse serum incubated for 4 hrs by equilibrium dialysis based LC-MS/MS analysis; assay type: ADME, cell-free; conditions: read-out: PB (converted)
Homo sapiens [11] = organism: Homo sapiens; test: Selectivity ratio of IC50 for inhibition of recombinant human MMP2 to IC50 for inhibition of recombinant human MMP7
Homo sapiens [12] = organism: Homo sapiens; test: Selectivity ratio of IC50 for inhibition of recombinant human MMP8 to IC50 for inhibition of recombinant human MMP7
Collagenase 3 = Collagenase 3 (Homo sapiens, UniProt P45452); test: Inhibition of recombinant human MMP13 using MOCAc-Pro-Leu-Gly-Leu-A2pr-(Dnp)-Ala-Arg-NH2 as substrate preincubated with compound for 15 mins followed by substrate addition and measured after 1 hrs by fluorescence based analysis
[13] = molecular target: Matrix metalloproteinase-9 (Homo sapiens, UniProt P14780); test: Inhibition of recombinant human MMP9 using MOCAc-Pro-Leu-Gly-Leu-A2pr-(Dnp)-Ala-Arg-NH2 as substrate preincubated with compound for 15 mins followed by substrate addition and measured after 1 hrs by fluorescence based analysis
Sequence of Matrix metalloproteinase-9 (P14780 whole entry): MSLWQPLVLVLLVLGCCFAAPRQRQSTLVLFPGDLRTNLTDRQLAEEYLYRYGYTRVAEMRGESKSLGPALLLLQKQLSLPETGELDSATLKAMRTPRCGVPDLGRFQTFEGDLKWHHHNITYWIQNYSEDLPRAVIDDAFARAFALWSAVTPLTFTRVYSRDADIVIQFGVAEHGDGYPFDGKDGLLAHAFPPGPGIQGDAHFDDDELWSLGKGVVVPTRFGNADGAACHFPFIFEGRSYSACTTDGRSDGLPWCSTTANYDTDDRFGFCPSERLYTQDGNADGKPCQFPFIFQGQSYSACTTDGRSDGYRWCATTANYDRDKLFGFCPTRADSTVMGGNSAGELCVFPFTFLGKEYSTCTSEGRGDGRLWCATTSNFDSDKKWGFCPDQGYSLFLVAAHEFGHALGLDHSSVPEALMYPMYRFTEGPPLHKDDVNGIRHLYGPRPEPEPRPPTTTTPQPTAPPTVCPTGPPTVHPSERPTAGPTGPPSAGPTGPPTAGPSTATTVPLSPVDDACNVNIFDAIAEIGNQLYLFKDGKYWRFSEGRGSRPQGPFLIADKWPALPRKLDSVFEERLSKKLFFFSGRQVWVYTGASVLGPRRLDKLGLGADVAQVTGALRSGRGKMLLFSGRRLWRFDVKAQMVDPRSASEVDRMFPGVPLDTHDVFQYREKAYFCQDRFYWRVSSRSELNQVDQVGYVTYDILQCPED

[14] = molecular target: Matrix metalloproteinase-14 (Homo sapiens, UniProt P50281); test: Inhibition of recombinant human MMP14 using MOCAc-Lys-Pro-Leu-Gly-Leu-A2pr(Dnp)-Ala-Arg-NH2 as substrate preincubated with compound for 15 mins followed by substrate addition and measured after 1 hrs by fluorescence based analysis
Matrilysin [15] = molecular target: T1, Matrilysin (Homo sapiens, UniProt P09237); test: Inhibition of recombinant human MMP7 using MOCAc-Pro-Leu-Gly-Leu-A2pr-(Dnp)-Ala-Arg-NH2 as substrate preincubated with compound for 15 mins followed by substrate addition and measured after 2 hrs by fluorescence based analysis
T1 sequence (P09237 whole entry): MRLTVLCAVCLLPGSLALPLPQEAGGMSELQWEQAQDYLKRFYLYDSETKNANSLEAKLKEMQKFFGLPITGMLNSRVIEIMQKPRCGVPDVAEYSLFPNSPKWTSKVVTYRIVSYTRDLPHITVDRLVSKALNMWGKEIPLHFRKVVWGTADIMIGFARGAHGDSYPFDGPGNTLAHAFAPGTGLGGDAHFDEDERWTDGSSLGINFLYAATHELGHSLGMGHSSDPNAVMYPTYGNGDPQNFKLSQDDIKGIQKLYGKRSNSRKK

[16] = molecular target: Macrophage metalloelastase (Homo sapiens, UniProt P39900); test: Inhibition of recombinant human MMP12 using MOCAc-Pro-Leu-Gly-Leu-A2pr-(Dnp)-Ala-Arg-NH2 as substrate preincubated with compound for 15 mins followed by substrate addition and measured after 1 hrs by fluorescence based analysis
Sequence of Macrophage metalloelastase (P39900 whole entry): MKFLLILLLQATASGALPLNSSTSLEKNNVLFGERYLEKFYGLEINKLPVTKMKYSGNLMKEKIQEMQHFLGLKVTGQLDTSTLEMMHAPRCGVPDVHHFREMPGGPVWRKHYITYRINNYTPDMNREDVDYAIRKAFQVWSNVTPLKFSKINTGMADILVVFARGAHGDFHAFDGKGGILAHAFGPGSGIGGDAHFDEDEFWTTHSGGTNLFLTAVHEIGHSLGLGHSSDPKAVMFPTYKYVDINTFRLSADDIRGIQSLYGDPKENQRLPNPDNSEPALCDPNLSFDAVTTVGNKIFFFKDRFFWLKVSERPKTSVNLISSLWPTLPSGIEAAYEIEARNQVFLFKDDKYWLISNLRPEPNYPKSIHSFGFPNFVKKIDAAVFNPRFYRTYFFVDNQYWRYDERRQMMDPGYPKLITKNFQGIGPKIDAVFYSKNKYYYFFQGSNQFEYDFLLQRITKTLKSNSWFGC

Homo sapiens [17] = organism: Homo sapiens; test: Selectivity ratio of IC50 for inhibition of recombinant human MMP9 to IC50 for inhibition of recombinant human MMP7
Mus musculus = test: Antifibrotic activity against unilateral ureteric obstruction induced C57BL/6J mouse model of renal fibrosis assessed as reduction in renal collagen at 10 to 100 mg/kg/day, SC preadministered with compound for 7 days followed by UUO surgery and measured after 7 days; assay type: functional, organism-based; conditions: dose 10-100 mg/kg/day, time 14.0 day
[18] = Total clearance in Sprague-Dawley rat at 1 mg/kg, iv administered as single dose by LC-MS/MS analysis; assay type: ADME, organism-based; conditions: in vivo
Stromelysin-1 = Stromelysin-1 (Homo sapiens, UniProt P08254); test: Inhibition of recombinant human MMP3 using MOCAc-Arg-Pro-Lys-Pro-Val-Glu-Nva-Trp-Arg-Lys(Dnp)-NH2 as substrate preincubated with compound for 15 mins followed by substrate addition and measured after 1 hrs by fluorescence based analysis
Sequence of Stromelysin-1 (P08254 whole entry): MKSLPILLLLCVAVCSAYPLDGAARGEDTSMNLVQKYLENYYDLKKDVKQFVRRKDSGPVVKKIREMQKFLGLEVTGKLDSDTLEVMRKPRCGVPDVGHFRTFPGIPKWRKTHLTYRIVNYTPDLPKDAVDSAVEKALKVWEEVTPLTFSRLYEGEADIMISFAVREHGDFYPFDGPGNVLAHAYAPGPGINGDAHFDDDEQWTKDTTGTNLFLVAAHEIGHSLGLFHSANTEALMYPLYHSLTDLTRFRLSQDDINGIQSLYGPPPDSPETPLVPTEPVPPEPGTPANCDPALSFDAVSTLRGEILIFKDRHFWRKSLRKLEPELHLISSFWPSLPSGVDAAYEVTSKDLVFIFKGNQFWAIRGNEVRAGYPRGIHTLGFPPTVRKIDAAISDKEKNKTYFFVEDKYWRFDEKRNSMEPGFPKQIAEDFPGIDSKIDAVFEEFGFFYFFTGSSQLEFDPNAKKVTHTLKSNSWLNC

Homo sapiens [19] = organism: Homo sapiens; test: Selectivity ratio of IC50 for inhibition of recombinant human MMP1 to IC50 for inhibition of recombinant human MMP7
[20] = Metabolic stability in rat hepatocytes assessed as intrinsic clearance at 1 uM incubated for 1 to 4 hrs by LC-MS/MS analysis; assay type: ADME, cell-based, Hepatocyte; conditions: time 1-4 hrs, read-out: CLH (converted)
Neutrophil collagenase = Neutrophil collagenase (Homo sapiens, UniProt P22894); test: Inhibition of recombinant human MMP8 using MOCAc-Pro-Leu-Gly-Leu-A2pr-(Dnp)-Ala-Arg-NH2 as substrate preincubated with compound for 15 mins followed by substrate addition and measured after 1 hrs by fluorescence based analysis
Sequence of Neutrophil collagenase (P22894 whole entry): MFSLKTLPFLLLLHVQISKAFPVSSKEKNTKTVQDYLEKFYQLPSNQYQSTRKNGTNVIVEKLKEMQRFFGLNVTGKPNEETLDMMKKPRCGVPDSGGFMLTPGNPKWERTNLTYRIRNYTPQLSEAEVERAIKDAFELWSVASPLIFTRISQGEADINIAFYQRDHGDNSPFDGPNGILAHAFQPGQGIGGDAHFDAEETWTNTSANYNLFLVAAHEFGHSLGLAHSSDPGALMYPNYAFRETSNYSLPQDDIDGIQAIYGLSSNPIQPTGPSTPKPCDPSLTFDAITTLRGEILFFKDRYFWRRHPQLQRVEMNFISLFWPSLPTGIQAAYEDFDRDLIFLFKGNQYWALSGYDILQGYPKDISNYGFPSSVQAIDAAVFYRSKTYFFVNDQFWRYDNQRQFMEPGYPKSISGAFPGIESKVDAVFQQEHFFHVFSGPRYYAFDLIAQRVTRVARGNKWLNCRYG

Matrilysin [21] = molecular target: T2, Matrilysin (Mus musculus, UniProt Q10738); test: Inhibition of mouse MMP7 using MOCAc-Pro-Leu-Gly-Leu-A2pr-(Dnp)-Ala-Arg-NH2 as substrate preincubated with compound for 15 mins followed by substrate addition and measured after 2 hrs by fluorescence based analysis
T2 sequence (Q10738 whole entry): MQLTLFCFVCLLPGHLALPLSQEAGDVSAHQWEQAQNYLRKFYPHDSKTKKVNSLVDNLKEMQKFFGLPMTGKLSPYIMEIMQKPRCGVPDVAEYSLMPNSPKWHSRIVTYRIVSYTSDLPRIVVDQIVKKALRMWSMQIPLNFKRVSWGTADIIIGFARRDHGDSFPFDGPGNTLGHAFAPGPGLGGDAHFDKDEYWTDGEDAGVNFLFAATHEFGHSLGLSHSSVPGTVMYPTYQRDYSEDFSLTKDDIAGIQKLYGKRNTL

[22] = Metabolic stability in human serum assessed as parent compound remaining at 5 uM incubated for 4 hrs by LC-MS/MS analysis; assay type: ADME, cell-free; conditions: read-out: Stability
Homo sapiens [23] = organism: Homo sapiens; test: Selectivity ratio of IC50 for inhibition of recombinant human MMP13 to IC50 for inhibition of recombinant human MMP7
Interstitial collagenase = molecular target: T3, Interstitial collagenase (Homo sapiens, UniProt P03956); test: Inhibition of recombinant human MMP1 using MOCAc-Lys-Pro-Leu-Gly-Leu-A2pr(Dnp)-Ala-Arg-NH2 as substrate preincubated with compound for 15 mins followed by substrate addition and measured after 1 hrs by fluorescence based analysis
T3 sequence (P03956 whole entry): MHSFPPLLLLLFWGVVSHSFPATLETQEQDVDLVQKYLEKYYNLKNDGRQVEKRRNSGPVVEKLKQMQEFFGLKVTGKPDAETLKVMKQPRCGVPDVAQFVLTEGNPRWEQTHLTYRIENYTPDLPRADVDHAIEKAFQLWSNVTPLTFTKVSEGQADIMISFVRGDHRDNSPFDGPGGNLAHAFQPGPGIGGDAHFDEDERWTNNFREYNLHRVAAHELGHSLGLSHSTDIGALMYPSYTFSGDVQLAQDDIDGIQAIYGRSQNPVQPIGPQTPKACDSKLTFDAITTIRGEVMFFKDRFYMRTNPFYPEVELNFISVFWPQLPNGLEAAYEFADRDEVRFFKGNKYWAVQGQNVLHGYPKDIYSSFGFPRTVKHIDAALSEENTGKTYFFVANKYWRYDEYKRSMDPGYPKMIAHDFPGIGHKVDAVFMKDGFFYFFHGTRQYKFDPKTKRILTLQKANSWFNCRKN

Ratio IC50 (Homo sapiens [1]): > 36000 | Ratio IC50 (Homo sapiens [2]): 460 | IC50 [3]: 7500 nM | CLint scaled at 1 µM [4]: 23.6 mL/min/kg | fraction unbound at 4 h [5]: 0.266 | Ratio IC50 (Homo sapiens [6]): 300 | logD [7]: 1.04 | Vd [8]: 1.09 L/kg | CLint scaled at 1 µM [9]: 13.6 mL/min/kg | fraction unbound at 4 h [10]: 0.368 | Ratio IC50 (Homo sapiens [11]): 2700 | Ratio IC50 (Homo sapiens [12]): > 36000 | IC50 (Collagenase 3): > 100000 nM | IC50 [13]: > 100000 nM | IC50 [14]: 850 nM | IC50 (Matrilysin [15]): 2.8 nM | IC50 [16]: 1300 nM | Ratio IC50 (Homo sapiens [17]): > 36000 | clearance [18]: 85.5 mL/min/kg | IC50 (Stromelysin-1): > 100000 nM | Ratio IC50 (Homo sapiens [19]): > 36000 | CLint scaled at 1 µM [20]: 11 mL/min/kg | IC50 (Neutrophil collagenase): > 100000 nM | IC50 (Matrilysin [21]): 49 nM | remaining at 4 h, 5 µM [22]: 101% | Ratio IC50 (Homo sapiens [23]): > 36000 | IC50 (Interstitial collagenase): > 100000 nM
SMILES: CC(C)(C)[C@H](NC(=O)[C@H](Cc1ccncc1)NC(=O)CNC(=O)CC[C@H](NS(=O)(=O)c1ccc(Cl)c(C(F)(F)F)c1)C(=O)O)C(=O)N1CCC[C@H]1CC(N)=O ({Benzenesulfonyl(4-Cl,3-CF3)-γGlu}-G[4Pal][Tle][β3hP]-NH2)
Activity (Mus musculus): Active
